≈ marks a conversion by molar mass, not a printed value.

The conditions of this data set: buffer; pH 7.4; 200.0 µM.
In general, kinetic solubility refers to solubility judged after dilution from a stock solution rather than from solid. Turning to `CC(=O)c1ccc(NC(=O)C2(c3ccccc3)CC2(Cl)Cl)cc1` (configuration not stated), the solubility (kinetic) is 19.6 µg/mL (≈ 56.3 µM).
Under `CN1CCN(CC(=O)Nc2nc3c(s2)CCCC3)CC1` stands > 44.2 µg/mL; under `CCc1cc(=O)oc2c(C)c(OC(C)C(=O)N3CCC[C@@H]3C(=O)O)ccc12` (some centres not stated), > 56 µg/mL.
`O=C(c1ccccc1F)N1CCCC(C(=O)N2CCc3ccccc3C2)C1` (configuration not stated) showed a kinetic solubility of 51.3 µg/mL (≈ 140 µM).
In turn, `O=C(NCc1ccccc1F)Nc1ccc([N+](=O)[O-])cc1` showed a solubility (kinetic) of 1.3 µg/mL (≈ 4.49 µM).
The figure for `Cc1ccc(C(=O)Cn2cc([N+](=O)[O-])nc2C)cc1` is 11.7 µg/mL (≈ 45.1 µM); for `Cc1ccc(C(C)NC(=O)C2CCCC2)c(C)c1` (configuration not stated) it is 34.2 µg/mL (≈ 139 µM); for `O=C(CN1C(=O)COc2ccccc21)NC1CCCC1` it is 32.9 µg/mL (≈ 120 µM).
Under `Cc1ccsc1-c1nc(CN2CCN(C)C(=O)[C@@H]2C)c(C)o1` stands 40 µg/mL (≈ 125 µM); under `Cc1ccccc1NC(=O)c1c([N+](=O)[O-])cnn1C`, > 39 µg/mL.
With `O=C(COC(=O)c1ccc([N+](=O)[O-])o1)Nc1ccc(N2CCOCC2)cc1`, the kinetic solubility amounted to 50.6 µg/mL (≈ 135 µM).
The figure for `CC1(C)OC2C(O1)[C@@H](CO)O[C@H]2n1cnc2c(N)ncnc21` (some centres not stated) is > 46.1 µg/mL; for `COC(=O)c1ccc(C(=O)OC)c(NC(=S)N2CCCC2)c1` it is 9.6 µg/mL (≈ 29.8 µM); for `NC(=O)NC(c1ccc(Cl)cc1)c1ccccc1Cl` (configuration not stated) it is > 44.3 µg/mL.
On to `CCCCn1c(N)c(N(CC)C(=O)c2c(C)noc2C)c(=O)[nH]c1=O`, for which the solubility (kinetic) is > 52.4 µg/mL.
Under `O=C(NCC(=O)N1CCN(c2ccc([N+](=O)[O-])cc2)CC1)c1ccco1` stands 11.4 µg/mL (≈ 31.8 µM).
Regarding `O=C(CCOc1ccccc1)N1CCN(c2ccc(O)cc2)CC1`, the solubility (kinetic) is > 49 µg/mL.
`CC(=O)c1cccc(OCC(O)CNCC2CCCCC2)c1` (configuration not stated): the kinetic solubility is > 45.8 µg/mL.
The figure for `O=C1CCCN1CC(O)CS(=O)(=O)Cc1ccccc1` (configuration not stated) is > 44.6 µg/mL; for `O=C(O)c1ccc(SCc2ccccc2)nc1` it is > 36.8 µg/mL.
Under `O=C(Nc1ccc2c(c1)C(=O)OC2)c1ccc(Cl)cc1` stands < 0.6 µg/mL; under `COc1cc(C(NC=O)C(=O)Nc2c(C)cccc2C)ccc1O` (configuration not stated), 45.4 µg/mL (≈ 138 µM); under `CN1CCN(CC(=O)Nc2ccccc2Oc2ccccc2)CC1`, > 48.8 µg/mL.
In the case of `O=C(NC(=S)Nc1ccc(Cl)cc1)c1cncc(Br)c1`, the solubility (kinetic) was 3.4 µg/mL (≈ 9.17 µM).
Molecule `Cc1ccc(NS(=O)(=O)c2ccc(NC(=O)C3CC3)cc2)cc1C` yielded a solubility (kinetic) of 6.9 µg/mL (≈ 20 µM).
Consider `NC(=O)c1ccc(NC(=O)COC(=O)CC2CC3CCC2C3)cc1` (configuration not stated), for which the solubility (kinetic) came to 13 µg/mL (≈ 39.3 µM).
The figure for `Cc1nnc(NC(=O)C2CCN(S(=O)(=O)c3ccc(F)c(F)c3)CC2)o1` is > 58 µg/mL; for `Cc1nc(/C(N)=N/OC(=O)c2ccc(Cl)cc2)c(C(F)(F)F)o1` it is 17 µg/mL (≈ 48.9 µM).
The figure for `O=C(NNC1=NS(=O)(=O)c2ccccc21)c1ccccc1` is > 45.2 µg/mL; for `O=C(O)CCSc1nnc(SCC(=O)NC2CCS(=O)(=O)C2)s1` (configuration not stated) it is > 59.6 µg/mL; for `O=C(CSCCS(=O)(=O)c1ccc(Cl)cc1)Nc1ccccc1` it is 3.5 µg/mL (≈ 9.46 µM).
The figure for `CC(C)C(NC(=O)c1ccc(Cl)cc1)C(=O)NCC1CCCO1` (configuration not stated) is > 50.8 µg/mL; for `COC(=O)c1sccc1NC(=O)c1cccc(F)c1` it is < 0.6 µg/mL.
Turning to `Cc1onc(-c2ccccc2Cl)c1NC(=O)NCc1cccs1`, the solubility (kinetic) was determined as 42.6 µg/mL (≈ 122 µM).
With `O=C(NCCCNC(=O)c1ccc(Cl)cc1Cl)c1ccccn1`, the solubility (kinetic) came out at 51.8 µg/mL (≈ 147 µM).
Under `Cc1cc(NC(=O)COC(=O)c2cccc(O)c2)no1` stands > 41.4 µg/mL; under `CCOCCCNC(=O)CN1CCN(Cc2ccc(Cl)cc2)C1=O`, 46.6 µg/mL (≈ 132 µM).
Take `OCC(O)CN1CCN(c2ccccc2)CC1` (configuration not stated): the solubility (kinetic) was > 35.4 µg/mL.
The figure for `Cc1cc(C(=O)COC(=O)Cc2ccc(Cl)cc2)c(C)n1C` is 21.3 µg/mL (≈ 66.6 µM).
`COc1ccc(CCNC(=O)C(=O)c2c(C)[nH]c3ccccc23)cc1` had a kinetic solubility of 0.5 µg/mL (≈ 1.49 µM).
Under `COc1ccc2nc(C)cc(NCCN3CCOCC3)c2c1` stands 42.3 µg/mL (≈ 140 µM).
Turning to `COc1ccc(S(=O)(=O)N2CC(=O)Nc3ccccc32)cc1F`, the kinetic solubility is > 50.5 µg/mL.
On to `O=C(Cc1ccccc1)c1c[nH]c(C(=O)NCCCn2ccnc2)c1`, for which the kinetic solubility was > 50.5 µg/mL.
For `CC(C)c1ccc(NC(=O)CSc2nc3ncccc3[nH]2)cc1`, the solubility (kinetic) stood at 3.2 µg/mL (≈ 9.8 µM).
The molecule `COC(=O)CSc1nc2ccc(C)cc2cc1C#N` returned a solubility (kinetic) of 1.9 µg/mL (≈ 6.98 µM). Compared with the last molecule, the solubility kinetic is about 1.7-fold lower.
As for `CCCCCCCCCC(=O)N[C@H](CN1CCOCC1)[C@H](O)c1ccccc1.Cl`, the kinetic solubility was > 64.1 µg/mL.
Under `O=[N+]([O-])c1cccc(S(=O)(=O)N2CN(c3ccc(Br)cc3)c3nc4ccccc4nc32)c1` stands 1.6 µg/mL (≈ 3.12 µM); under `CN(C(=O)COC(=O)c1ccc(Cl)cc1N)C1CCCCC1`, 0.7 µg/mL (≈ 2.16 µM).
Under `COc1ccc(OC)c(NC(=O)COC(=O)CCc2ccc(S(=O)(=O)N3CCOCC3)cc2)c1` stands 29 µg/mL (≈ 58.9 µM); under `O=C(O)Cn1cnc2scc(-c3ccccc3)c2c1=O`, > 42.9 µg/mL; under `c1csc(-c2noc(CN3CCN4CCCC4C3)n2)c1` (configuration not stated), > 43.6 µg/mL.
Under `Cc1ccc2sc(=O)[nH]c2c1` stands 19.4 µg/mL (≈ 117 µM).
As for `CN(C)C(=O)c1cc([N+](=O)[O-])ccc1O`, the kinetic solubility is > 31.5 µg/mL.
Under `CC(=O)N1CCC(C(=O)NCCOc2ccc(C)cc2)CC1` stands > 45.7 µg/mL; under `N#Cc1ccccc1OCC(=O)NCC(c1cccs1)N1CCOCC1` (configuration not stated), > 55.7 µg/mL.
The figure for `CC1CN(S(=O)(=O)c2ccccc2)CN1C(=O)N1CCOCC1` (configuration not stated) is > 50.9 µg/mL; for `O=C1CC(Sc2ccc(Cl)cc2)C(=O)N1c1ccc2c(c1)OCCO2` (configuration not stated) it is 13 µg/mL (≈ 34.6 µM).
In the case of `CNc1snc(C)c1C(=O)OCC(=O)N(C)c1ccccc1`, the solubility (kinetic) is > 47.9 µg/mL.
Under `Nc1ccccc1C(=O)N1CCCC1` stands > 28.5 µg/mL.
Under `COC(=O)c1ccc2nc(-c3ccc(S(C)(=O)=O)cc3)cn2c1` stands 2 µg/mL (≈ 6.05 µM); under `Cc1ccc(NC(=O)c2c(C)noc2C)cc1S(=O)(=O)N1CCOCC1`, > 56.9 µg/mL; under `CC(Cc1ccccc1)C(=O)Nc1ccc(Br)cc1` (configuration not stated), 3.2 µg/mL (≈ 10.1 µM).
In the case of `Cc1cccn2c(=O)c(C=O)c(Cl)nc12`, the solubility (kinetic) is > 33.4 µg/mL.
The figure for `Cc1cc(=O)oc(C)c1C(=O)Nc1ccccc1F` is 35.4 µg/mL (≈ 136 µM); for `CC1(C)CC(=O)C2=C(C1)NC(=O)NC2c1ccccc1Cl` (configuration not stated) it is 45.6 µg/mL (≈ 150 µM).
In the case of `Cc1ccc(NC(=O)N[C@H](C(=O)O)C(C)C)c(C)c1`, the solubility (kinetic) is > 39.6 µg/mL.
`Cc1ccc(S(=O)(=O)N2CCC[C@H]2C(=O)OCC(=O)Nc2ccc3c(c2)OCO3)cc1`: the kinetic solubility was found to be 34.3 µg/mL (≈ 76.8 µM).
Under `CC1(C)CC(=O)C(CC(=O)NC2CCCc3ccccc32)C(=O)C1` (configuration not stated) stands > 49.1 µg/mL; under `COc1cccc(CNCCc2c[nH]c3ccccc23)c1`, 35.8 µg/mL (≈ 128 µM); under `COCCNC(=O)CSc1nccn1Cc1ccc2c(c1)OCO2`, > 52.4 µg/mL.
The figure for `O=C(/C=C/c1ccc(Cl)cc1)Nc1cc(S(=O)(=O)N2CCOCC2)ccc1N1CCOCC1` is 5.9 µg/mL (≈ 12 µM); for `NC(C(=O)O)C(c1ccccc1)C(F)F` (configuration not stated) it is 30 µg/mL (≈ 139 µM).
The molecule `FC(F)(F)c1ccccc1CNCc1ccc2c(c1)OCO2` yielded a kinetic solubility of 25.8 µg/mL (≈ 83.4 µM). This solubility kinetic and that of the molecule before are within 1.5-fold of each other.
Take `Cc1ccc(S(=O)(=O)Nc2ccc(Cl)cn2)cc1`: the kinetic solubility is 28.3 µg/mL (≈ 100 µM).
`CO/N=C/C=C1/N(C)c2ccccc2C1(C)C` registered a kinetic solubility of 19.4 µg/mL (≈ 84.2 µM).
Under `COc1cccc2cc(C(=O)NCc3ccc(F)cc3)c(=N)oc12` stands 1.7 µg/mL (≈ 5.21 µM); under `O=C(/C=C/c1ccc([N+](=O)[O-])cc1)N1CCN(Cc2ccccc2)CC1`, 1.7 µg/mL (≈ 4.84 µM); under `CN1CCN(C(=O)c2cc3ccccc3[nH]2)CC1`, > 36.5 µg/mL.
The figure for `CCOC(=O)C1CCCN(C(=O)c2ccc3ncsc3c2)C1` (configuration not stated) is > 47.8 µg/mL; for `O=C(/C=C/c1ccco1)NCC1COc2ccccc2O1` (configuration not stated) it is > 42.8 µg/mL.
Under `CC1(C(=O)Nc2ccccc2)Cc2ccccc2C(=O)O1` (configuration not stated) stands > 42.2 µg/mL.
Take `O=C(Nc1ccccc1N1CCOCC1)c1ccncc1`: the kinetic solubility is > 42.5 µg/mL.
The figure for `O=C(CSc1nnc2ccccn12)Nc1ccc(N2CCOCC2)cc1` is > 55.4 µg/mL; for `COc1cccc(CNC(=O)CC(NC(C)=O)c2ccccc2)c1` (configuration not stated) it is > 49 µg/mL; for `O=C(CN1C(=O)C2C3CCC(C3)C2C1=O)OCC(=O)c1ccc(Br)cc1` (configuration not stated) it is > 63 µg/mL.
The figure for `CC(NC(=O)C1c2ccccc2Oc2ccccc21)C1CCCO1` (configuration not stated) is 37.8 µg/mL (≈ 117 µM).
The figure for `Cc1ccc(CNS(=O)(=O)c2cccc3nsnc23)cc1` is > 47.9 µg/mL; for `COc1ccccc1-n1ccnc1SCC(=O)NCc1ccco1` it is 48.4 µg/mL (≈ 141 µM); for `COC(=O)[C@@H]1CC(O)CN1C(=O)C12CC3CC(CC(C3)C1)C2` (some centres not stated) it is > 46.1 µg/mL.
In turn, `Cc1cc(C)c(C#N)c(OCC(=O)Nc2ccccc2)n1` returned a solubility (kinetic) of 31.7 µg/mL (≈ 113 µM).
Under `S=C(NCC1(c2ccccc2)CCCC1)Nc1ccccc1` stands 0.8 µg/mL (≈ 2.58 µM).
The figure for `Cc1cccc(-c2nc(C#N)c(N3CCCCC3)o2)c1` is 0.4 µg/mL (≈ 1.5 µM).
Under `Cn1c(O)c(C=NCCN2CCOCC2)c(=O)n(C)c1=S` stands > 46.9 µg/mL.
`O=C(/C=C/c1ccc([N+](=O)[O-])cc1)c1cccs1` yielded a solubility (kinetic) of 1.6 µg/mL (≈ 6.17 µM).
The figure for `CCOC(=O)COc1cc2oc(=O)cc(C)c2cc1[N+](=O)[O-]` is 3 µg/mL (≈ 9.76 µM); for `Cc1cc(S(=O)(=O)NCc2cccnc2)ccc1F` it is 33.7 µg/mL (≈ 120 µM).
With `O=C(CCCc1nc2ccccc2s1)NCc1cccnc1`, the kinetic solubility was > 46.7 µg/mL.
Turning to `CCN(Cc1ccccc1)C(=O)c1ccc(SC)cc1OC`, the kinetic solubility was determined as 45.8 µg/mL (≈ 145 µM).
`CN(Cc1nc(-c2cccs2)no1)CC(O)c1ccccc1` (configuration not stated) had a kinetic solubility of 42.8 µg/mL (≈ 136 µM).
The molecule `Cc1cccc(NC(=O)CSc2cccc3cccnc23)c1C` had a solubility (kinetic) of 3.7 µg/mL (≈ 11.5 µM).
`COc1ccc(Cl)cc1NC(=O)CN(C)CC(=O)N(CC(C)C)c1c(N)n(CC(C)C)c(=O)[nH]c1=O` registered a solubility (kinetic) of 77.9 µg/mL (≈ 149 µM).
With `CCc1c(C)nc(SCC(=O)N2CCCCC2CC)[nH]c1=O` (configuration not stated), the kinetic solubility amounted to 44.6 µg/mL (≈ 138 µM).
